Assays:
Assay in all cases: relative viability (nuclei count vs DMSO), 5 days (fraction); higher = more cells survive
A-427 = system: A-427
In short: (§1)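 Medians of duplicate plates are given as relative viability. That measure is the nuclei count in treated wells divided by the count in vehicle wells. Counts were taken on 4× images of lung cancer cell lines in 1536-well plates, 5 days after pin-tool dosing the day after seeding with one drug alone or a fixed anchor-drug dose plus five library-drug doses (not always all listed) in √10 steps.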

NCI-H520 = system: NCI-H520
In short: as §1

201T = system: 201T
In short: as §1

H3255 = system: H3255
In short: as §1

NCI-H596 = system: NCI-H596
In short: as §1

ABC-1 = system: ABC-1
In short: as §1

BEN = system: BEN
In short: as §1

NCI-H1651 = system: NCI-H1651
In short: as §1

NCI-H2023 = system: NCI-H2023
In short: as §1

LCLC-97TM1 = system: LCLC-97TM1
In short: as §1

NCI-H1650 = system: NCI-H1650
In short: as §1

LC-2-ad = system: LC-2-ad
In short: as §1

NCI-H2087 = system: NCI-H2087
In short: as §1

NCI-H460 = system: NCI-H460
In short: as §1

NCI-H441 = system: NCI-H441
In short: as §1

NCI-H661 = system: NCI-H661
In short: as §1

NCI-H727 = system: NCI-H727
In short: as §1

PC-3 [JPC-3] = system: PC-3 [JPC-3]
In short: as §1

NCI-H650 = system: NCI-H650
In short: as §1

HCC-15 = system: HCC-15
In short: as §1

NCI-H1944 = system: NCI-H1944
In short: as §1

NCI-H1915 = system: NCI-H1915
In short: as §1

CAL-12T = system: CAL-12T
In short: as §1

NCI-H1792 = system: NCI-H1792
In short: as §1

**Q.** Which results are given for `CC(C)Oc1cc(Nc2nc(N[C@@H](C)c3ccc(F)cn3)ncc2Cl)n[nH]1` [AZ23] + C[C@@H](Oc1cc(-c2cnn(C3CCNCC3)c2)cnc1N)c1c(Cl)ccc(F)c1Cl [Crizotinib] (partner 1 µM)?
**A.** relative viability (A-427; first compound 0.01 µM): 0.942; relative viability (A-427; first compound 0.03162 µM): 0.951; relative viability (A-427; first compound 0.3162 µM): 0.754; relative viability (NCI-H520; first compound 0.01 µM): 0.869; relative viability (NCI-H520; first compound 0.03162 µM): 0.864; relative viability (NCI-H520; first compound 0.3162 µM): 0.732; relative viability (201T; first compound 0.01 µM): 1.06; relative viability (201T; first compound 0.03162 µM): 1.05; relative viability (201T; first compound 0.3162 µM): 1.01; relative viability (H3255; first compound 0.01 µM): 0.981; relative viability (H3255; first compound 0.03162 µM): 1.18; relative viability (H3255; first compound 0.3162 µM): 1.01; relative viability (NCI-H596; first compound 0.01 µM): 0.97; relative viability (NCI-H596; first compound 0.03162 µM): 1.05; relative viability (NCI-H596; first compound 0.3162 µM): 0.896; relative viability (ABC-1; first compound 0.01 µM): 0.752; relative viability (ABC-1; first compound 0.03162 µM): 1.27; relative viability (ABC-1; first compound 0.3162 µM): 1.25; relative viability (BEN; first compound 0.01 µM): 0.855; relative viability (BEN; first compound 0.03162 µM): 1.09; relative viability (BEN; first compound 0.3162 µM): 0.968; relative viability (NCI-H1651; first compound 0.01 µM): 0.94; relative viability (NCI-H1651; first compound 0.03162 µM): 0.97; relative viability (NCI-H1651; first compound 0.3162 µM): 0.875; relative viability (NCI-H2023; first compound 0.03162 µM): 0.825; relative viability (NCI-H2023; first compound 0.3162 µM): 0.616; relative viability (LCLC-97TM1; first compound 0.01 µM): 0.424; relative viability (LCLC-97TM1; first compound 0.03162 µM): 0.527; relative viability (LCLC-97TM1; first compound 0.3162 µM): 0.305; relative viability (NCI-H1650; first compound 0.01 µM): 0.863; relative viability (NCI-H1650; first compound 0.03162 µM): 1.4; relative viability (NCI-H1650; first compound 0.3162 µM): 0.984; relative viability (LC-2-ad; first compound 0.01 µM): 0.471; relative viability (LC-2-ad; first compound 0.03162 µM): 0.458; relative viability (LC-2-ad; first compound 0.3162 µM): 0.436; relative viability (NCI-H2087; first compound 0.01 µM): 1.16; relative viability (NCI-H2087; first compound 0.03162 µM): 1.11; relative viability (NCI-H2087; first compound 0.3162 µM): 1.04; relative viability (NCI-H460; first compound 0.01 µM): 0.827; relative viability (NCI-H460; first compound 0.03162 µM): 1.04; relative viability (NCI-H460; first compound 0.3162 µM): 0.834; relative viability (NCI-H441; first compound 0.01 µM): 1.15; relative viability (NCI-H441; first compound 0.03162 µM): 0.914; relative viability (NCI-H441; first compound 0.3162 µM): 0.774; relative viability (NCI-H661; first compound 0.01 µM): 1.1; relative viability (NCI-H661; first compound 0.03162 µM): 1.19; relative viability (NCI-H661; first compound 0.3162 µM): 1.11; relative viability (NCI-H727; first compound 0.01 µM): 1.01; relative viability (NCI-H727; first compound 0.03162 µM): 1.14; relative viability (NCI-H727; first compound 0.3162 µM): 0.648; relative viability (PC-3 [JPC-3]; first compound 0.01 µM): 1.3; relative viability (PC-3 [JPC-3]; first compound 0.03162 µM): 1.07; relative viability (PC-3 [JPC-3]; first compound 0.3162 µM): 0.91; relative viability (NCI-H650; first compound 0.01 µM): 0.866; relative viability (NCI-H650; first compound 0.03162 µM): 0.813; relative viability (NCI-H650; first compound 0.3162 µM): 0.847; relative viability (HCC-15; first compound 0.01 µM): 1.1; relative viability (HCC-15; first compound 0.03162 µM): 0.881; relative viability (HCC-15; first compound 0.3162 µM): 0.884; relative viability (NCI-H1944; first compound 0.01 µM): 1.11; relative viability (NCI-H1944; first compound 0.03162 µM): 1.18; relative viability (NCI-H1944; first compound 0.3162 µM): 1.17; relative viability (NCI-H1915; first compound 0.01 µM): 1.28; relative viability (NCI-H1915; first compound 0.03162 µM): 0.936; relative viability (NCI-H1915; first compound 0.3162 µM): 0.979; relative viability (CAL-12T; first compound 0.01 µM): 0.324; relative viability (CAL-12T; first compound 0.03162 µM): 0.759; relative viability (CAL-12T; first compound 0.3162 µM): 0.583; relative viability (NCI-H1792; first compound 0.01 µM): 1.47; relative viability (NCI-H1792; first compound 0.03162 µM): 1.27; relative viability (NCI-H1792; first compound 0.3162 µM): 1.01

Reference: the supplement of paper PMC10307832
